Test results taken from publication PMC6251858 (Acta Pharmaceutica Sinica. B, 2018).

How the values were obtained:
Assay type in all cases: cell-based
[1] = tested on: herpes simplex virus 1 (HSV-1); test: in vitro antiviral assay against herpes simplex virus 1
Coxsackie virus B3 = test: in vitro inhibition of Coxsackie virus B3 replication; details: for SI against Coxsackie virus B3 replication: selectivity index, preliminary in vitro assay
[2] = tested on: influenza virus A/Hanfang/359/95 (H3N2); test: in vitro antiviral assay against influenza virus A/Hanfang/359/95; details: selectivity index, preliminary in vitro assay

Compound	IC50 ([1]; Human alphaherpesvirus 1, read-out: IC50 against herpes simplex virus 1 (HSV-1)) [nM]	SI against herpes simplex virus 1 (HSV-1) ([1]; selectivity index, preliminary in vitro assay)	IC50 (Coxsackie virus B3; Enterovirus B, B3, read-out: IC50 against Coxsackie virus B3 replication) [nM]	SI against Coxsackie virus B3 replication (Coxsackie virus B3)	SI against influenza virus A/Hanfang/359/95 (H3N2) [2]
Nc1nc2c(ncn2COCCO)c(=O)[nH]1 [acyclovir]	710	140.9	–	–	–
Cc1cc(CCCOc2c(C)cc(-c3noc(C(F)(F)F)n3)cc2C)on1 [Pleconaril]	–	–	410	243.9	–
NC(=O)c1ncn([C@@H]2O[C@H](CO)[C@@H](O)[C@H]2O)n1 [RBV]	–	–	–	9.0	1200
